# Assays:
# GhJMT2 = target: T1, GhJMT2 (Gossypium hirsutum, UniProt A0A2K9REX3); assay: GC-MS product detection, recombinant E. coli supernatant; format: biochemical; conditions: SAM 1 uL of 100 mM, KCl, 25 °C, 30 min; empty vector control; product MeJA
# T1 construct: gene JMT2; cloning primers encode MEVVQVL... ...PMDVFLF (derived)
# T1 sequence (A0A2K9REX3 1-372): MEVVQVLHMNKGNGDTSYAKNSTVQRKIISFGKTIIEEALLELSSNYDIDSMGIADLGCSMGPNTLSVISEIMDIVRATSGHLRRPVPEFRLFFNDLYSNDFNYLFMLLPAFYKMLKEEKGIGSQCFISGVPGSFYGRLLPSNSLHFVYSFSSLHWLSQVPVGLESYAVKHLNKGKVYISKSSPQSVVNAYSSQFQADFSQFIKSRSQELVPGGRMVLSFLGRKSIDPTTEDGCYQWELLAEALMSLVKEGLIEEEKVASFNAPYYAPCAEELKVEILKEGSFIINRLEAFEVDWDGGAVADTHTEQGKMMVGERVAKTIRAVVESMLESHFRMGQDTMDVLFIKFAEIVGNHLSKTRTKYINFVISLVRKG
# GhJMT1 = target: T2, GhJMT1 (Gossypium hirsutum, UniProt A0ACM8RG93); assay: as above; format: biochemical; conditions: SAM 1 uL of 100 mM, KCl, 25 °C, 30 min; empty vector control; product MeJA
# T2 construct: gene JMT1; cloning primers encode MQVLHMN... ...ALTKKW (derived)
# T2 sequence (A0ACM8RG93 1-371): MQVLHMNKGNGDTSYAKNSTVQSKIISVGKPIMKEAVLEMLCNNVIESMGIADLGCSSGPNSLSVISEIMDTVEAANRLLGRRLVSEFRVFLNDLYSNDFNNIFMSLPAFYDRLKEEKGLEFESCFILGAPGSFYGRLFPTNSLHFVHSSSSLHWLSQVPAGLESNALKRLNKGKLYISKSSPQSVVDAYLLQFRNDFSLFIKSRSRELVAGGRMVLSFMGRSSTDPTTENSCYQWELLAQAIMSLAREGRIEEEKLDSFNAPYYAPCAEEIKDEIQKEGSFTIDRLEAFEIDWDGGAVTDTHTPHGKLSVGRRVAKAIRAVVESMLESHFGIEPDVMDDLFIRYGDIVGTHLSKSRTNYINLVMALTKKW
smiles,measurement,setting,value
CC/C=C\C[C@H]1C(=O)CC[C@@H]1CC(=O)O [jasmonic acid],"GC-MS product detection, recombinant E. coli supernatant",GhJMT2,recombinant GhJMT1 and GhJMT2 were both responsible for the conversion of JA to MeJA
same,"GC-MS product detection, recombinant E. coli supernatant",GhJMT1,recombinant GhJMT1 and GhJMT2 were both responsible for the conversion of JA to MeJA

# Source: PMC10508841, “Two jasmonic acid carboxyl methyltransferases in Gossypium hirsutum involved in MeJA biosynthesis may contribute to plant defense” (Frontiers in Plant Science, 2023)
